Laboratory results: patent publication US20190134005A1 (BioMarin Pharmaceutical Inc., priority 2016, published 2019)

What follows are compounds tested against T1, human CGT (Homo sapiens, UniProt Q16880) (assay: CGT Enzyme Assay (Biological Example 2, RapidFire/MS/MS method with 0.01% Tween 80 added)). Settings: enzymatic assay, CHO/CGT lysate.
T1 sequence (Q16880 21-541): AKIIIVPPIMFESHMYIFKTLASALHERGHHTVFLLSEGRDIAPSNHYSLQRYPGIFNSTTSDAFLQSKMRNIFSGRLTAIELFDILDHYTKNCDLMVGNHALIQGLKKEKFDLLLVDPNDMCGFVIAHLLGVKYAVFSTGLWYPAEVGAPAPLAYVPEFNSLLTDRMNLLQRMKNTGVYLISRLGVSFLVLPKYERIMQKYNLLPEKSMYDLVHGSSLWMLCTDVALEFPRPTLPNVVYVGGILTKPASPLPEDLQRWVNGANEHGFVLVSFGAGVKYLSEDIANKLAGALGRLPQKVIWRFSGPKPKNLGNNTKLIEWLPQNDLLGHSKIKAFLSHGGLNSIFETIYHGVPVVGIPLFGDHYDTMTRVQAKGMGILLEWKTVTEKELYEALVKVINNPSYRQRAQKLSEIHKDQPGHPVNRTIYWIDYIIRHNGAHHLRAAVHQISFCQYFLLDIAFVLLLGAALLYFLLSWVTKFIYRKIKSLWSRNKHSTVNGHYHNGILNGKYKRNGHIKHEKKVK
Type: biochemical
Method in brief: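 Lysate of CHO cells transfected with full-length human CGT, 0.5% DMSO final, 0.01% Tween 80 added; reactions stopped with methanol:acetonitrile holding internal standard. C6-NBD-dihydro-galactosylceramide and C6-NBD-dihydro-ceramide measured by RapidFire/MS/MS (ESI negative), product peak area normalized to internal standard.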

Row | SMILES | IC50 [µM]
1 | Cc1ccc(N2C(=O)N(c3ccc(C)cc3)C3(COC3)[C@@H]2c2cccc(C#N)c2)cc1 [Example 32-2, (S)-3-(6-oxo-5,7-di-p-tolyl-2-oxa-5,7-diazaspiro[3.4]octan-8-yl)benzonitrile] | < 1
2 | Cc1cccc(C2C(C)N(c3ccc(Cl)cc3)C(=O)N2c2ccc(Cl)cc2)c1 (stereo not shown) [Example 3] | 30 to 100
3 | C[C@@H]1[C@@H](c2cccc(OC(F)(F)F)c2)N(c2ccc(Cl)cc2)C(=O)N1c1ccc(Cl)cc1 [Example 4-2, (4R,5R)-1,3-bis(4-chlorophenyl)-4-methyl-5-(3-(trifluoromethoxy)phenyl)imidazolidin-2-one] | 10 to 30
4 | C[C@H]1[C@@H](c2ccccc2)N(c2ccc(Br)cc2)C(=O)N1c1ccc(Br)cc1 [Example 2-3, (4S,5R)-1,3-bis(4-bromophenyl)-4-methyl-5-phenylimidazolidin-2-one] | 1 to 10
5 | CCC1(CC)[C@H](c2cccc(OC(F)(F)F)c2)N(c2ccc(Cl)cc2)C(=O)N1c1ccc(Cl)cc1 [Example 17-2, (S)-1,3-bis(4-chlorophenyl)-4,4-diethyl-5-(3-(trifluoromethoxy)phenyl)imidazolidin-2-one] | 1 to 10
6 | C[C@@]1(C(F)(F)F)[C@H](c2cccc(OC(F)(F)F)c2)N(c2ccc(Br)cc2)C(=O)N1c1ccc(C#N)cc1 [Example 44-1, 4-((4S,5S)-3-(4-bromophenyl)-5-methyl-2-oxo-4-(3-(trifluoromethoxy)phenyl)-5-(trifluoromethyl)imidazolidin-1-yl)benzonitrile] | 1 to 10
7 | O=C1N(c2ccc(Cl)cc2)[C@H]2CCC[C@@]2(c2cccc(C(F)F)c2)N1c1ccc(Cl)cc1 [Example 16-1, (3aS,6aS)-1,3-bis(4-chlorophenyl)-3a-(3-(difluoromethyl)phenyl)hexahydrocyclopenta[d]imidazol-2(1H)-one] | 10 to 30
8 | O=C1N(c2ccc(Cl)cc2)[C@H](c2cccc(OC(F)(F)F)c2)C2(CCCC2)N1c1ccc(Cl)cc1 [Example 15-2, (R)-1,3-bis(4-chlorophenyl)-4-(3-(trifluoromethoxy)phenyl)-1,3-diazaspiro[4.4]nonan-2-one] | < 1
9 | CC1(C)[C@@H](c2cccc(OC(F)(F)F)c2)N(c2ccccc2)C(=O)N1c1ccccc1 [Example 26-1, (R)-4,4-dimethyl-1,3-diphenyl-5-(3-(trifluoromethoxy)phenyl)imidazolidin-2-one] | 10 to 30
10 | CC[C@]1(C)[C@H](c2cccc(OC(F)(F)F)c2)N(c2ccc(C#N)cc2)C(=O)N1c1ccc(C#N)cc1 [Example 51-2, 4,4′-((4R,5S)-4-ethyl-4-methyl-2-oxo-5-(3-(trifluoromethoxy)phenyl)imidazolidine-1,3-diyl)dibenzonitrile] | < 1
11 | CC1(C)[C@H](c2cccc(OC(F)(F)F)c2)N(c2ccc(C(F)(F)F)cc2)C(=O)N1c1ccc(C(F)(F)F)cc1 [Example 20-2, (S)-4,4-dimethyl-5-(3-(trifluoromethoxy)phenyl)-1,3-bis(4-(trifluoromethyl)phenyl)imidazolidin-2-one] | 10 to 30
12 | Cc1ccc(N2C(=O)N(c3ccc(C)cc3)C3(CCCC3)[C@H]2c2cccc(OC(F)(F)F)c2)cc1 [Example 35-1, (R)-1,3-di-p-tolyl-4-(3-(trifluoromethoxy)phenyl)-1,3-diazaspiro[4.4]nonan-2-one] | 1 to 10
13 | O=C1N(c2ccc(Cl)cc2)[C@@H]2CCC[C@]2(c2cccc(OC(F)F)c2)N1c1ccc(Cl)cc1 [Example 23-2, (3aR,6aR)-1,3-bis(4-chlorophenyl)-3a-(3-(difluoromethoxy)phenyl)hexahydrocyclopenta[d]imidazol-2(1H)-one] | 10 to 30
14 | N#Cc1ccc(N2C(=O)N(c3ccc(Cl)cc3)C3(COC3)[C@@H]2c2cccc(OC(F)(F)F)c2)cc1 [Example 47-2, (S)-4-(5-(4-chlorophenyl)-6-oxo-8-(3-(trifluoromethoxy)phenyl)-2-oxa-5,7-diazaspiro[3.4]octan-7-yl)benzonitrile] | < 1
15 | O=C1N(c2ccc(Br)cc2)C2CCCCC2N1c1ccc(Br)cc1 (stereo not shown) [Example 1] | 30 to 100
16 | CC[C@]1(C)[C@@H](c2cccc(OC(F)(F)F)c2)N(c2ccc(Cl)cc2)C(=O)N1c1ccc(Cl)cc1 [Example 19-1, (4R,5R)-1,3-bis(4-chlorophenyl)-4-ethyl-4-methyl-5-(3-(trifluoromethoxy)phenyl)imidazolidin-2-one] | 1 to 10
17 | Cc1ccc(N2C(=O)N(c3ccc(Cl)cc3)[C@@H](c3cccc(OC(F)(F)F)c3)C23COC3)cc1 [Example 49-2] | < 1
18 | Cc1ccc(N2C(=O)N(c3ccc(C)cc3)C(C)(C)[C@H]2c2cccc(OC(F)(F)F)c2)cc1 [Example 21-1, (R)-4,4-dimethyl-1,3-di-p-tolyl-5-(3-(trifluoromethoxy)phenyl)imidazolidin-2-one] | 1 to 10
19 | Cc1ccc(N2C(=O)N(c3ccc(C#N)cc3)C3(COC3)[C@@H]2c2cccc(OC(F)(F)F)c2)cc1 [Example 43-2, (S)-4-(6-oxo-7-(p-tolyl)-8-(3-(trifluoromethoxy)phenyl)-2-oxa-5,7-diazaspiro[3.4]octan-5-yl)benzonitrile] | < 1
20 | CCC[C@]1(C)[C@@H](c2cccc(OC(F)(F)F)c2)N(c2ccc(C#N)cc2)C(=O)N1c1ccc(C#N)cc1 [Example 52-3, 4,4′-((4R,5R)-4-methyl-2-oxo-4-propyl-5-(3-(trifluoromethoxy)phenyl)imidazolidine-1,3-diyl)dibenzonitrile] | 1 to 10
21 | O=C1N(c2ccc(Cl)cc2)[C@H]2CCC[C@@]2(c2cccc(OC(F)F)c2)N1c1ccc(Cl)cc1 [Example 23-1, (3aS,6aS)-1,3-bis(4-chlorophenyl)-3a-(3-(difluoromethoxy)phenyl)hexahydrocyclopenta[d]imidazol-2(1H)-one] | 10 to 30
22 | N#Cc1ccc(N2C(=O)N(c3ccc(C#N)cc3)C3(COC3)[C@H]2c2cccc(OC(F)(F)F)c2)cc1 [Example 36-1] | 10 to 30

The remaining lines, values ahead:

Row | IC50 [µM] | SMILES
23 | < 1 | Cc1ccc(N2C(=O)N(c3ccc(Cl)cc3)[C@@H](c3cccc(OC(F)(F)F)c3)C2(C)C)cc1 [Example 56-2, (S)-1-(4-chlorophenyl)-4,4-dimethyl-3-(p-tolyl)-5-(3-(trifluoromethoxy)phenyl)imidazolidin-2-one]
24 | 1 to 10 | CC1(C)[C@@H](c2cccc(OC(F)(F)F)c2)N(c2ccc(Cl)cc2)C(=O)N1c1ccc(Cl)cc1 [Example 7-1, (R)-1,3-bis(4-chlorophenyl)-4,4-dimethyl-5-(3-(trifluoromethoxy)phenyl)imidazolidin-2-one]
25 | 10 to 30 | CC1(C)[C@@H](c2cccc(C#N)c2)N(c2ccc(Cl)cc2)C(=O)N1c1ccc(Cl)cc1 [Example 10-1, (R)-3-(1,3-bis(4-chlorophenyl)-5,5-dimethyl-2-oxoimidazolidin-4-yl)benzonitrile]
26 | < 1 | C[C@]1(C(F)(F)F)[C@@H](c2cccc(C#N)c2)N(c2ccc(Cl)cc2)C(=O)N1c1ccc(Cl)cc1 [Example 27-2, 3-((4R,5R)-1,3-bis(4-chlorophenyl)-5-methyl-2-oxo-5-(trifluoromethyl)imidazolidin-4-yl)benzonitrile]
27 | 10 to 30 | CC1(C)[C@@H](c2cccc(C(F)(F)F)c2)N(c2ccc(Cl)cc2)C(=O)N1c1ccc(Cl)cc1 [Example 6-1, (R)-1,3-bis(4-chlorophenyl)-4,4-dimethyl-5-(3-(trifluoromethyl)phenyl)imidazolidin-2-one]
28 | 10 to 30 | CC1(C)[C@@H](c2cccc(OC(F)(F)F)c2)N(c2ccc(Cl)cc2)C(=O)N1c1ccc(C#N)cc1 [Example 41-1, (R)-4-(3-(4-chlorophenyl)-5,5-dimethyl-2-oxo-4-(3-(trifluoromethoxy)phenyl)imidazolidin-1-yl)benzonitrile]
29 | 10 to 30 | CC[C@]1(C)[C@H](c2cccc(C#N)c2)N(c2ccc(Cl)cc2)C(=O)N1c1ccc(Cl)cc1 [Example 34-4, 3-((4S,5R)-1,3-bis(4-chlorophenyl)-5-ethyl-5-methyl-2-oxoimidazolidin-4-yl)benzonitrile]
30 | 10 to 30 | CC1(C)[C@@H](c2cccc(Cl)c2)N(c2ccc(Cl)cc2)C(=O)N1c1ccc(Cl)cc1 [Example 8-1, (R)-5-(3-chlorophenyl)-1,3-bis(4-chlorophenyl)-4,4-dimethylimidazolidin-2-one]
31 | < 1 | CC1(C)[C@H](c2cccc(C(F)(F)F)c2)N(c2ccc(Cl)cc2)C(=O)N1c1ccc(Cl)cc1 [Example 6-2, (S)-1,3-bis(4-chlorophenyl)-4,4-dimethyl-5-(3-(trifluoromethyl)phenyl)imidazolidin-2-one]
32 | 10 to 30 | C[C@@H]1[C@@H](c2cccc(C#N)c2)N(c2ccc(Cl)cc2)C(=O)N1c1ccc(Cl)cc1 [Example 5-1, 3-((4R,5R)-1,3-bis(4-chlorophenyl)-5-methyl-2-oxoimidazolidin-4-yl)benzonitrile]
33 | < 1 | CC1(C)C(c2cccc(Cl)c2)N(c2ccc(Cl)cc2)C(=O)N1c1ccc(Cl)cc1 (stereo not shown) [Example 8]
34 | 1 to 10 | N#Cc1cccc([C@]23CCCC[C@H]2N(c2ccc(Cl)cc2)C(=O)N3c2ccc(Cl)cc2)c1 [Example 14-1, 3-((3aR,7aR)-1,3-bis(4-chlorophenyl)-2-oxooctahydro-3aH-benzo[d]imidazol-3a-yl)benzonitrile]
